In US12459974B2, “Bicyclic peptide ligands specific for Nectin-4” (priority 2018, dated 2025):
Where two headings read alike, the source gives them in different places. *1 amine or outer side, *2 acyl side, *3 side chain or, on linkers, in order; H or OH if unused. Where a SMILES comes first, the peptide text is derived from it. Bridges are numbered along the chain shown (N, C = ends). TATA = O=C(CC[*:1])N1CN(C(=O)CC[*:2])CN(C(=O)CC[*:3])C1

Target: T1, human Nectin-4 (Homo sapiens, UniProt Q96NY8)
T1 sequence (Q96NY8 32-510): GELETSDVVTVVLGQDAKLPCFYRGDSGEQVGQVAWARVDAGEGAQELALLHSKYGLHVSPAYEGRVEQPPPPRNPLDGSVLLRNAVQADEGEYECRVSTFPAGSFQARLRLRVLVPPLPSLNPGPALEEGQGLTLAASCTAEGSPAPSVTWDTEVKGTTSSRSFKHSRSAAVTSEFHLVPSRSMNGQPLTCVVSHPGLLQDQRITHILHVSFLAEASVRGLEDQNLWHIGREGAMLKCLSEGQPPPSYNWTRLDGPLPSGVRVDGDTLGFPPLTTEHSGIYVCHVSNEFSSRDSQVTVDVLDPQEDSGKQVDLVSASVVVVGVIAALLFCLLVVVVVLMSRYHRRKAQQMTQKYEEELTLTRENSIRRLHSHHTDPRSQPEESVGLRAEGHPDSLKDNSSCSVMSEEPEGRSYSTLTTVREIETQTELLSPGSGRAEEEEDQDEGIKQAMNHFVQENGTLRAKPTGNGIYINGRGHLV
Assay: Nectin-4 competition binding assay (fluorescence polarisation)
Protocol: Peptides were diluted to an appropriate concentration in assay buffer as described in the direct binding assay with a maximum of 5% DMSO, then serially diluted 1 in 2. Five μL of diluted peptide was added to the plate followed by 10 μL of human Nectin-4, then 10 μL fluorescent peptide added. Measurements were conducted as for the direct binding assay, however the gain was determined prior to the first measurement. Data analysis was in Systat Sigmaplot version 12.0 where the mP values were fit to a user defined cubic equation to generate a Ki value: • f=ymin+(ymax−ymin)/Lig*((Lig*((2*((Klig+Kcomp+Lig+Comp-Prot*c)^2-3*(Kcomp*(Lig-Prot*c)+Klig*(Comp-Prot*c)+Klig*Kcomp))^0.5*COS(ARCCOS((−2*(Klig+Kcomp+Lig+Comp-Prot*c)^3+9*(Klig+Kcomp+Lig+Comp-Prot*c)*(Kcomp*(Lig-Prot*c)+Klig*(Comp-Prot*c)+Klig*Kcomp)−27*(−1*Klig*Kcomp*Prot*c)/(2*((((Klig+Kcomp+Lig+Comp-Prot*c)^2−3*(Kcomp*(Lig-Prot*c)+Klig*(Comp-Prot*c)+Klig*Kcomp))^3)^0.5)))/3))−(Klig+Kcomp+Lig+Comp-Prot*c)))/((3*Klig)+((2*((Klig+Kcomp+Lig+Comp-Prot*c)^2−3*(Kcomp*(Lig-Prot*c)+Klig*(Comp-Prot*c)+Klig*Kcomp))^0.5*COS (ARCCOS ((−2*(Klig+Kcomp+Lig+Comp-Prot*c)^3+9*(Klig+Kcomp+Lig+Comp-Prot*c)*(Kcomp*(Lig-Prot*c)+Klig*(Comp-Prot*c)+Klig*Kcomp)-27*(−1*Klig*Kcomp*Prot*c))/(2*((((Klig+Kcomp+Lig+Comp-Prot*c)^2-3*(Kcomp*(Lig-Prot*c)+Klig*(Comp-Prot+c)+Klig*Kcomp))^3)^0.5))/3)−(Klig+Kcomp+Lig+Comp-Prot*c)))).
“Lig”, “KLig” and “Prot” were all defined values relating to: fluorescent peptide concentration, the Kd of the fluorescent peptide and Nectin concentration respectively.

[1] = competition with fluorescent peptide SEQ ID NO: 217, read-out: Ki

`CC[C@H](C)[C@@H]1NC(=O)[C@@H]2CCCN2C(=O)[C@H](Cc2c[nH]c3ccccc23)NC(=O)[C@H](CO)NC(=O)[C@H](Cc2c[nH]c3ccccc23)NC(=O)[C@H](CC(N)=O)NC(=O)[C@H](CCCNC(=N)N)NC(=O)[C@H](CCSC)NC(=O)[C@@H]2CSCCC(=O)N3CN(CN(C3)C(=O)CCSC[C@H](NC(=O)[C@H](C)N)C(=O)N3CCC[C@H]3C(=O)N[C@@H](Cc3ccccc3)C(=O)NCC(=O)N2)C(=O)CCSC[C@@H](C(=O)N[C@@H](C)C(N)=O)NC(=O)[C@H](Cc2c[nH]c3ccccc23)NC1=O` [BCY429, A-(SEQ ID NO: 2)-A] (H-ACPFGCMRNWSWPIWCA-NH2; linker 2-6-16 via TATA; N-terminus and C-terminus assumed) gave a Ki [1] of 42.6 nM.
`CC[C@H](C)[C@@H]1NC(=O)[C@H](CCCNC(=N)N)NC(=O)CNC(=O)[C@@H]2CSCCC(=O)N3CN(CN(C3)C(=O)CCSC[C@@H](C(=O)N[C@@H](C)C(N)=O)NC1=O)C(=O)CCSC[C@H](NC(=O)[C@H](C)N)C(=O)N[C@@H](Cc1c[nH]c3ccccc13)C(=O)N1CCC[C@H]1C(=O)N[C@@H](CC(C)C)C(=O)N[C@@H](CC(=O)O)C(=O)N1CCC[C@H]1C(=O)N[C@@H](Cc1ccc(O)cc1)C(=O)N[C@@H](Cc1c[nH]c3ccccc13)C(=O)N2` [BCY430, A-(SEQ ID NO: 43)-A] (H-ACWPLDPYWCGRICA-NH2; linker 2-10-14 via TATA; N-terminus and C-terminus assumed) was tested, and the Ki [1] was 310 nM.
Molecule `CC[C@H](C)[C@@H]1NC(=O)[C@H](CCCNC(=N)N)NC(=O)CNC(=O)[C@@H]2CSCCC(=O)N3CN(CN(C3)C(=O)CCSC[C@@H](C(=O)N[C@@H](C)C(N)=O)NC1=O)C(=O)CCSC[C@H](NC(=O)[C@H](Cc1c[nH]c3ccccc13)NC(=O)[C@H](CC(=O)O)NC(=O)[C@@H](N)CC(=O)O)C(=O)N[C@@H](C)C(=O)N1CCC[C@H]1C(=O)N[C@@H](CC(C)C)C(=O)N[C@@H](CC(=O)O)C(=O)N[C@@H](CC(=O)O)C(=O)N[C@@H](Cc1ccc(O)cc1)C(=O)N[C@@H](Cc1c[nH]c3ccccc13)C(=O)N2` [BCY433, DDW-(SEQ ID NO: 32)-A] (H-DDWCAPLDDYWCGRICA-NH2; linker 4-12-16 via TATA; N-terminus and C-terminus assumed) has a Ki [1] of 69.4 nM.
For `CC[C@H](C)[C@@H]1NC(=O)[C@@H]2CCCN2C(=O)[C@H](Cc2c[nH]c3ccccc23)NC(=O)[C@H](CO)NC(=O)[C@H](Cc2c[nH]c3ccccc23)NC(=O)[C@H]([C@@H](C)O)NC(=O)[C@H](CCC(=O)O)NC(=O)[C@H](CCSC)NC(=O)[C@@H]2CSCCC(=O)N3CN(CN(C3)C(=O)CCSC[C@H](NC(=O)[C@H](C)NC(=O)[C@H](CC(=O)O)NC(=O)[C@@H](N)CC(=O)O)C(=O)N3CCC[C@H]3C(=O)N[C@@H](Cc3ccccc3)C(=O)NCC(=O)N2)C(=O)CCSC[C@@H](C(=O)N[C@@H](C)C(N)=O)NC(=O)[C@H](Cc2c[nH]c3ccccc23)NC1=O` [BCY3386, DDA-(SEQ ID NO: 45)-A] (H-DDACPFGCMETWSWPIWCA-NH2; linker 4-8-18 via TATA; N-terminus and C-terminus assumed), the Ki [1] was 80.2 nM.
`CC[C@H](C)[C@@H]1NC(=O)[C@@H]2CCCN2C(=O)[C@H](Cc2c[nH]c3ccccc23)NC(=O)[C@H](CO)NC(=O)[C@H](Cc2c[nH]c3ccccc23)NC(=O)[C@H](CC(=O)O)NC(=O)[C@H](CCCCN)NC(=O)[C@H](CCSC)NC(=O)[C@@H]2CSCCC(=O)N3CN(CN(C3)C(=O)CCSC[C@H](NC(=O)[C@H](CC(N)=O)NC(=O)[C@H](CC(=O)O)NC(=O)[C@@H](N)CO)C(=O)N3CCC[C@H]3C(=O)N[C@@H](Cc3ccccc3)C(=O)NCC(=O)N2)C(=O)CCSC[C@@H](C(=O)N[C@@H](C)C(N)=O)NC(=O)[C@H](Cc2c[nH]c3ccccc23)NC1=O` [BCY3387, SDN-(SEQ ID NO: 15)-A] (H-SDNCPFGCMKDWSWPIWCA-NH2; linker 4-8-18 via TATA; N-terminus and C-terminus assumed) was tested, and the Ki [1] was 234 nM.
`CC[C@H](C)[C@@H]1NC(=O)[C@@H]2CCCN2C(=O)[C@H](Cc2c[nH]c3ccccc23)NC(=O)[C@H](CO)NC(=O)[C@H](Cc2c[nH]c3ccccc23)NC(=O)CNC(=O)[C@H](CCCNC(=N)N)NC(=O)[C@H](CCSC)NC(=O)[C@@H]2CSCCC(=O)N3CN(CN(C3)C(=O)CCSC[C@H](NC(=O)[C@H](C)NC(=O)[C@@H](NC(=O)[C@@H](N)CC(=O)O)[C@@H](C)O)C(=O)N3CCC[C@H]3C(=O)N[C@@H](Cc3ccccc3)C(=O)NCC(=O)N2)C(=O)CCSC[C@@H](C(=O)N[C@@H](C)C(N)=O)NC(=O)[C@H](Cc2c[nH]c3ccccc23)NC1=O` [BCY3388, DTA-(SEQ ID NO: 46)-A] (H-DTACPFGCMRGWSWPIWCA-NH2; linker 4-8-18 via TATA) was tested, and the Ki was 129 nM.
With `CC[C@H](C)[C@@H]1NC(=O)[C@@H]2CCCN2C(=O)[C@H](Cc2c[nH]c3ccccc23)NC(=O)[C@H](CO)NC(=O)[C@H](Cc2c[nH]c3ccccc23)NC(=O)CNC(=O)[C@H](CO)NC(=O)[C@H](CCSC)NC(=O)[C@@H]2CSCCC(=O)N3CN(CN(C3)C(=O)CCSC[C@H](NC(=O)[C@H](CCC(=O)O)NC(=O)[C@H](CO)NC(=O)[C@@H](N)CC(=O)O)C(=O)N3CCC[C@H]3C(=O)N[C@@H](Cc3ccccc3)C(=O)NCC(=O)N2)C(=O)CCSC[C@@H](C(=O)N[C@@H](C)C(N)=O)NC(=O)[C@H](Cc2c[nH]c3ccccc23)NC1=O` [BCY3389, DSE-(SEQ ID NO: 47)-A] (H-DSECPFGCMSGWSWPIWCA-NH2; linker 4-8-18 via TATA; N-terminus and C-terminus assumed) the Ki [1] was 99.8 nM.
`CC[C@H](C)[C@@H]1NC(=O)[C@@H]2CCCN2C(=O)[C@H](Cc2c[nH]c3ccccc23)NC(=O)[C@H](CO)NC(=O)[C@H](Cc2c[nH]c3ccccc23)NC(=O)CNC(=O)[C@H](CCC(=O)O)NC(=O)[C@H](CCSC)NC(=O)[C@@H]2CSCCC(=O)N3CN(CN(C3)C(=O)CCSC[C@H](NC(=O)[C@H](C)NC(=O)[C@H](CC(=O)O)NC(=O)[C@@H](N)Cc3c[nH]cn3)C(=O)N3CCC[C@H]3C(=O)N[C@@H](Cc3ccccc3)C(=O)NCC(=O)N2)C(=O)CCSC[C@@H](C(=O)N[C@@H](C)C(N)=O)NC(=O)[C@H](Cc2c[nH]c3ccccc23)NC1=O` [BCY3390, HDA-(SEQ ID NO: 48)-A] (H-HDACPFGCMEGWSWPIWCA-NH2; linker 4-8-18 via TATA; N-terminus and C-terminus assumed) showed a Ki [1] of 302 nM.
With `CC[C@H](C)[C@@H]1NC(=O)[C@@H]2CCCN2C(=O)[C@H](Cc2c[nH]c3ccccc23)NC(=O)[C@H](CO)NC(=O)[C@H](Cc2c[nH]c3ccccc23)NC(=O)[C@H](CC(=O)O)NC(=O)[C@H](CCC(=O)O)NC(=O)[C@H](CCSC)NC(=O)[C@@H]2CSCCC(=O)N3CN(CN(C3)C(=O)CCSC[C@H](NC(=O)[C@@H](NC(=O)[C@H](CC(=O)O)NC(=O)[C@@H](N)CCSC)[C@@H](C)O)C(=O)N3CCC[C@H]3C(=O)N[C@@H](Cc3ccccc3)C(=O)NCC(=O)N2)C(=O)CCSC[C@@H](C(=O)N[C@@H](C)C(N)=O)NC(=O)[C@H](Cc2c[nH]c3ccccc23)NC1=O` [BCY3391, MDT-(SEQ ID NO: 49)-A] (H-MDTCPFGCMEDWSWPIWCA-NH2; linker 4-8-18 via TATA; N-terminus and C-terminus assumed) the Ki [1] was 198 nM.
For `CC[C@H](C)[C@@H]1NC(=O)[C@@H]2CCCN2C(=O)[C@H](Cc2c[nH]c3ccccc23)NC(=O)[C@H](CO)NC(=O)[C@H](Cc2c[nH]c3ccccc23)NC(=O)CNC(=O)[C@@H]2CCCN2C(=O)[C@H](CCSC)NC(=O)[C@@H]2CSCCC(=O)N3CN(CN(C3)C(=O)CCSC[C@H](NC(=O)CNC(=O)[C@@H]3CCCN3C(=O)[C@@H](N)CC(=O)O)C(=O)N3CCC[C@H]3C(=O)N[C@@H](Cc3ccccc3)C(=O)NCC(=O)N2)C(=O)CCSC[C@@H](C(=O)N[C@@H](C)C(N)=O)NC(=O)[C@H](Cc2c[nH]c3ccccc23)NC1=O` [BCY3392, DPG-(SEQ ID NO: 50)-A] (H-DPGCPFGCMPGWSWPIWCA-NH2; linker 4-8-18 via TATA; N-terminus and C-terminus assumed), the Ki [1] was 36.3 nM.
